Settings: human, in vivo, 4.5 mg/kg

blood plasma levels: 5 to 11 µmol
SMILES: COc1cc(/C=C/C(=O)CC(=O)/C=C/c2ccc(O)c(OC)c2)ccc1O [curcumin, diferuloylmethane]
